How the values were obtained:
[1] = biological target: T1, IV-cPLA(2) in activated U937 cells (Homo sapiens, UniProt P47712); test: PLA(2) activity: hydrolysis of bis-BODIPY FL C11-PC in TPA/A23187-activated U937 cells; type: cell-based; details: U-937
T1 sequence (P47712 1-749): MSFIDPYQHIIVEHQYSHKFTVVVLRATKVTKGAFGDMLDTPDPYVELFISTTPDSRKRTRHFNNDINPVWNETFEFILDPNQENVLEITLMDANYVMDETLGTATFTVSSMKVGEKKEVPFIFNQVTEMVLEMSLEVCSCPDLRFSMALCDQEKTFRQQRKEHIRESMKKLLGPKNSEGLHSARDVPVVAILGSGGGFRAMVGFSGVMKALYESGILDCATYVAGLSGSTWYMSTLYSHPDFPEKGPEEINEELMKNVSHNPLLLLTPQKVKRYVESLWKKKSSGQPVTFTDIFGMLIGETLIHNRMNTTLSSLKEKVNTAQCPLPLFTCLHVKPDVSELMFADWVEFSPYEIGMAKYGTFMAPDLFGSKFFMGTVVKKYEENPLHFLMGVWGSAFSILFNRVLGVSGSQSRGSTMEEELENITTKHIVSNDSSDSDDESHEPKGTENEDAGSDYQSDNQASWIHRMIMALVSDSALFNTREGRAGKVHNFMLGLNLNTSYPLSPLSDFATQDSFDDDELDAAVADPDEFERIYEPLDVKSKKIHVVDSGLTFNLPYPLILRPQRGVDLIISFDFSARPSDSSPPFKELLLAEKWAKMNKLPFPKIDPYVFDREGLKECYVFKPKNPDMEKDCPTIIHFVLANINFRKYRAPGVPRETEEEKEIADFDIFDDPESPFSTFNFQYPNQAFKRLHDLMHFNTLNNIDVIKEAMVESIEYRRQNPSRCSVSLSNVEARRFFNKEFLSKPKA
Description: The PLA(2) activity was measured by quantitatively analyzing the fluorescent product of hydrolysis from 1,2-bis-(4,4-difluoro-5,7-dimethyl-4-bora-3a,4a-diaza-s-indecene-3-undecanoyl)-sn-glycero-3-phosphocholine (hereinafter referred to bis-BODIPY®FL C11-PC, Molecular probes, Inc., B-7701) using activated U937 cells (human monoblastic lymphoma cell line) by inflammatory stimulus (Meshulam, T. et al., The journal of Biological Chemistry 267 (30): 21465–21470 (1992); and Solito, E. et al., British Journal of Pharmacology 124: 1675–1683(1998).). The substrate bis-BODIPY®FL C11-PC is incorporated into cellular membranes, the proximity of the BODIPY®FL fluorophores on adjacent phospholipid acyl chains causes fluorescence self-quenching. Separation of the fluorophores upon hydrolytic cleavage of one of the acyl chains by PLA(1) or the PLA(2) results in increased fluorescence. […]
The test compound was dissolved with DMSO at 30 mM, and the solution diluted with either DMSO or the Assay medium before addition into the reaction mixture. […] The increased fluorescence of the hydrolysis product by the enzyme was determined by measuring the fluorescence emission intensity at 535 nm with excitation at 485 nm from the top side of each plate at 37° C., using a Multi Functional Microplate Reader SPECTRA FLUOR PLUS (TECAN Austria GmbH). […]

[2] = system: acetic acid induced writhes; test: Acetic acid writhing; type: in vivo, mouse
Description: Pharmacological Test Example 4: Acetic Acid Wirthing
This test was carried out referring to the method of Inoue, K., Motonaga, A. & Nishimura, T (Arzneimittel Forshung/Drug Research, 41 (1): 235–239 (1991)). More specifically, 7.5 mL/kg of 0.9% acetic acid solution was injected intraperitoneally into an ICR-strain male mouse (5 to 7 weeks old), and the induced writhes (characteristic behaviors of convulsive contracting the abdomen, twisting the body and/or extending the legs) were observed. Number of writhes of each mouse was measured during 10 to 20 min. period after acetic acid administration. […] The analgesic activity of the compounds according to the present invention was evaluated on the basis of the degree of inhibiting the number writhes by the administration of the compounds. As the positive control, indomethacin or aspirin was administrated. The analgesic activity of the compounds according to the present invention measured in this test were exemplified in Table 7.

[3] = system: Mouse Ear Edema Induced by TPA; test: Mouse ear edema induced by TPA; type: in vivo; details: for Ear Edema Inhibition (%): topical, ICR male mouse, 6 hours after TPA
Description: Pharmacological Test Example 2: Mouse Ear Edema Induced by TPA
This test was carried out referring to the method of Carlson, R. P. et al. (Agents and Actions, 17(2): 197–204 (1985).) and the method of Chang, J. (European Journal of Pharmacology, 142: 197–205 (1987).). More specifically, 5 μg/20 μL of TPA (Sigma Chemical Co.), dissolved with ethanol, was topically applied to the anterior and posterior surfaces of the right ear of an ICR-strain male mouse (6–7 weeks old). 6 hours later, the thickness of each ear at the particular part was respectively measured three times using a digimatic micrometer to calculate the mean value. Ear edema was determined by subtracting the mean thickness of the left ear as without treatment from that of the right ear as TPA-applied. Topical application activity was evaluated by applying an acetone solution of the compound of the present invention or 0.1% Tween 80/acetone solution thereof similarly to the anterior and posterior surfaces of the right ear 30 min. before and 15 min. after the TPA-application. […] Oral administration activity was evaluated by administrating 0.2% Tween 80 suspension of the compound of the present invention forcibly and perorally to the mouse an hour prior to the TPA-application. As the positive control, 100 mg/kg of Hydrocortisone (Sigma Chemical Co., H 4001) suspension was applied to the mouse similarly as for the compound of the present invention.

Cc1ccc(S(=O)(=O)C(C#N)=C2N[C@@H](C)[C@@H](c3ccc(Cl)cc3)O2)cc1 (relative stereo) [Compound 1-41, Cis-5-(4-chlorophenyl)-4-methyl-2-(1-(4-methylphenylsulfonyl)-1-cyanomethylene)-oxazolidine]
inhibition at 0.1 µM [1]: 100% | Number of writhes (Mean ± S.E.) ([2]; i.p. 1 mg/kg, 30 min before, vehicle i.p. 25.2 ± 2.2): 4.0 ± 1.9 | Number of writhes (Mean ± S.E.) ([2]; p.o. 10 mg/kg, 120 min before, vehicle p.o. 23.5 ± 3.1): 1.3 ± 0.8 | Ear Edema Inhibition (%) ([3]; 1 mg/40 μL/ear × 2): 80.5%

CC(=O)Oc1ccccc1C(=O)O [Aspirin, aspirin]
Number of writhes (Mean ± S.E.) ([2]; i.p. 30 mg/kg, 30 min before, vehicle i.p. 25.2 ± 2.2): 9.5 ± 2.0 | Number of writhes (Mean ± S.E.) ([2]; p.o. 100 mg/kg, 60 min before): 9.5 ± 1.9

CC(=O)OCC(=O)[C@@]1(O)[C@H](C)C[C@H]2[C@@H]3CCC4=CC(=O)C=C[C@]4(C)[C@@]3(F)[C@@H](O)C[C@@]21C [DEX-Ac, Dexamathasone-21-acetate]
body weight after 24 hours ([3]; mice of the TPA ear edema test): reduced | Ear Edema Inhibition (%) ([3]; 1 mg/20 μL/ear × 2): 79.6%

COc1ccc2c(c1)c(CC(=O)O)c(C)n2C(=O)c1ccc(Cl)cc1 [Indomethacin, indomethacin]
Number of writhes (Mean ± S.E.) ([2]; i.p. 3 mg/kg, 30 min before, vehicle i.p. 25.2 ± 2.2): 13.8 ± 3.0 | Number of writhes (Mean ± S.E.) ([2]; i.p. 10 mg/kg, 30 min before, vehicle i.p. 25.2 ± 2.2): 4.8 ± 0.9 | Number of writhes (Mean ± S.E.) ([2]; p.o. 3 mg/kg, 60 min before): 6.8 ± 2.0 | intoxicated symptoms ([3]; mice of the TPA ear edema test): showed intoxicated symptoms | body weight after 24 hours ([3]; mice of the TPA ear edema test): reduced | Ear Edema Inhibition (%) ([3]; 3 mg/40 μL/ear × 2): 63.5%

— patent publication US7189751B2, “Oxa(thia)zolidine compounds, process for preparation thereof and anti-inflammatory agents” (Nippon Soda Co., Ltd., priority 2001, dated 2007)
